The kcat is the number of substrate molecules converted per active site and unit of time at saturation.

The subject of series [1] is CNC[C@H](O)c1ccc(O)c(O)c1. The settings on record: Homo sapiens; 10 uM.
Description: (§1) Activity of human recombinant CA2 at 10 uM by stopped-flow technique
Series [2] deals with NCCc1c[nH]cn1. The conditions noted are these: Homo sapiens; 10 uM.
Description: as §1
The target of series [3] is Carbonic anhydrase 1 (Homo sapiens) (UniProt P00915).
Description: Activation of human recombinant CA1 by CO2 hydration method
The target in series [4] is Carbonic anhydrase 2 (Homo sapiens) (UniProt P00918).
Description: Activation of human recombinant CA2 by CO2 hydration method
The target of series [5] is Carbonic anhydrase 4 (Homo sapiens) (UniProt P22748).
Description: Activation of human recombinant CA4 by CO2 hydration method
Series [6] addresses Carbonic anhydrase 5A, mitochondrial (Homo sapiens) (UniProt P35218).
Description: Activation of human recombinant CA5A by CO2 hydration method
Series [7] has as its target Carbonic anhydrase 7 (Homo sapiens) (UniProt P43166).
Description: Activation of human recombinant CA7 by CO2 hydration method
The target of series [8] is Carbonic anhydrase 14 (Homo sapiens) (UniProt Q9ULX7).
Description: Activation of human recombinant CA14 by CO2 hydration method
The subject of series [9] is CNC[C@H](O)c1ccc(O)c(O)c1. The conditions noted are these: Homo sapiens; 10 uM. This is another data set of the same source.
Description: (§2) Activity of human recombinant CA1 at 10 uM by stopped-flow technique
In series [10] the test system is NCCc1c[nH]cn1. The settings on record: Homo sapiens; 10 uM. The source holds these as a separate data set.
Description: as §2

Sequence of Carbonic anhydrase 14 (Homo sapiens) (Q9ULX7 whole entry): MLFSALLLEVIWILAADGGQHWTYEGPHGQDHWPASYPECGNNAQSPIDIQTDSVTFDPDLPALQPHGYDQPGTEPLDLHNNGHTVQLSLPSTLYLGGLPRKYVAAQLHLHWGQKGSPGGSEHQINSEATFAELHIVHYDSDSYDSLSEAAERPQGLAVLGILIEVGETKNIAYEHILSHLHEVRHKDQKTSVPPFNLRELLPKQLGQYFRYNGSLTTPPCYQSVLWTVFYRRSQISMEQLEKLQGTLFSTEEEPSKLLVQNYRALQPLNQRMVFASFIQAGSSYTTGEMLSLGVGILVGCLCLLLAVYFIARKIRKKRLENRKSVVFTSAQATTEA
Sequence of Carbonic anhydrase 5A, mitochondrial (Homo sapiens) (P35218 whole entry): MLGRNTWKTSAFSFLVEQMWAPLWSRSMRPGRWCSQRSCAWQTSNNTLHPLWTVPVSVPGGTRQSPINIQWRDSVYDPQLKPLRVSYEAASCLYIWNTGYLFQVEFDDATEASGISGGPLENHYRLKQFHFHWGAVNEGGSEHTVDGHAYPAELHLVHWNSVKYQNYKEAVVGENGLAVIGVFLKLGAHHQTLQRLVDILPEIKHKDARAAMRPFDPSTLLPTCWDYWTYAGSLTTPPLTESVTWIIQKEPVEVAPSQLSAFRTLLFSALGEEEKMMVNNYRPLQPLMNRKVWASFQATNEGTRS
Sequence of Carbonic anhydrase 7 (Homo sapiens) (P43166 whole entry): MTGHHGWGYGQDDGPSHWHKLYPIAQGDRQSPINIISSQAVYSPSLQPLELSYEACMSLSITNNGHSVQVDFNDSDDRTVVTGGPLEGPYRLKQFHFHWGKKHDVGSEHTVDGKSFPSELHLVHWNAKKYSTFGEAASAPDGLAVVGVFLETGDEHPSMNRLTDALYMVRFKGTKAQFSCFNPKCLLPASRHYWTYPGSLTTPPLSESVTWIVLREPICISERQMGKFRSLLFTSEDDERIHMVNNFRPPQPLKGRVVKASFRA
Sequence of Carbonic anhydrase 1 (Homo sapiens) (P00915 2-261 limits assumed): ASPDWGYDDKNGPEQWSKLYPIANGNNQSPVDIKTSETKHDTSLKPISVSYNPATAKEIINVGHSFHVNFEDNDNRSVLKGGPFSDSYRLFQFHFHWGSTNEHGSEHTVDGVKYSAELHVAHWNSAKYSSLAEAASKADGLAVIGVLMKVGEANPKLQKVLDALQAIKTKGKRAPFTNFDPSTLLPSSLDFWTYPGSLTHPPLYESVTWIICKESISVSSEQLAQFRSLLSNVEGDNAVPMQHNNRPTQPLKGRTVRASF
Sequence of Carbonic anhydrase 4 (Homo sapiens) (P22748 whole entry): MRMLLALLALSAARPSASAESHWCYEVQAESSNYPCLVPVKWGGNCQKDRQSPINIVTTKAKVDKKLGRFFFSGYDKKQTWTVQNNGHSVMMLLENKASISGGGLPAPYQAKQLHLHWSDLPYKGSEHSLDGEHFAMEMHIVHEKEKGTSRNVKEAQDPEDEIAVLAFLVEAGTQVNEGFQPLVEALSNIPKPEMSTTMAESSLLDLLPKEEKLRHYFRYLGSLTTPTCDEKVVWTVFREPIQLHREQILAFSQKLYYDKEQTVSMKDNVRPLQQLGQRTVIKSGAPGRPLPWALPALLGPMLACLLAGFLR
Sequence of Carbonic anhydrase 1 (Homo sapiens), P00915 (P00915 whole entry): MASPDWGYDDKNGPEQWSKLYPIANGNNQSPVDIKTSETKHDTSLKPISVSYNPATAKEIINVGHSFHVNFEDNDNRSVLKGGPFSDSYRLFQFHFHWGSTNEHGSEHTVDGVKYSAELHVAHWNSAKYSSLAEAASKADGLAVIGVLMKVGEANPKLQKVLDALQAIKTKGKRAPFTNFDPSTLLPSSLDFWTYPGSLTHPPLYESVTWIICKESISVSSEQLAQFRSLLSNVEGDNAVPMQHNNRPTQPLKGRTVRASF

For the compound “Carbonic anhydrase 2 (Homo sapiens) (from UniProt P00918)”, the kcat in [1] was 1.7 10^6/s; in the series on NCCc1c[nH]cn1 [2], 2 10^6/s.

Take `NCCc1c[nH]cn1`: the Ka in series [3] was 0.05 µM; in series [4], 74 µM; in [5] it was 31 µM; in [6], 2.5 µM; in [7], 1.3 µM; in series [8], 1.9 µM.

As to “Carbonic anhydrase 1 (Homo sapiens), P00915”, the kcat in series [9] is 10.4 10^5/s; with NCCc1c[nH]cn1 [10], 12.7 10^5/s.

On to `CNC[C@H](O)c1ccc(O)c(O)c1`, for which the Ka in series [3] was 0.09 µM; in series [4], 96 µM; in series [5], 45 µM; in [6] it was 63 µM; in [7] it was 60 µM; in series [8] it was 36 µM.

The values above are taken from ChEMBL document CHEMBL1146311, “Carbonic anhydrase activators: L-Adrenaline plugs the active site entrance of isozyme II, activating better isoforms I, IV, VA, VII, and XIV” (Bioorg Med Chem Lett, 2007).
